According to patent publication US7285703B2, “Plant like starches and the method of making them in hosts” (BASF Plant Science GmbH, priority 1998, dated 2007):

Tests used:
[1] = biological target: T1, maize starch synthase SSI-1 (STSI-1), full length SSI (583 amino acids), N-terminus CVAELSREGP (SEQ ID NO:64) (Zea mays, UniProt O49064); experiment: ADPGlc kinetics of starch synthase SSI-1; type: biochemical; conditions: 5 mg/ml amylopectin as primer, 37° C.
T1 sequence (O49064 with tags, fused parts or gaps): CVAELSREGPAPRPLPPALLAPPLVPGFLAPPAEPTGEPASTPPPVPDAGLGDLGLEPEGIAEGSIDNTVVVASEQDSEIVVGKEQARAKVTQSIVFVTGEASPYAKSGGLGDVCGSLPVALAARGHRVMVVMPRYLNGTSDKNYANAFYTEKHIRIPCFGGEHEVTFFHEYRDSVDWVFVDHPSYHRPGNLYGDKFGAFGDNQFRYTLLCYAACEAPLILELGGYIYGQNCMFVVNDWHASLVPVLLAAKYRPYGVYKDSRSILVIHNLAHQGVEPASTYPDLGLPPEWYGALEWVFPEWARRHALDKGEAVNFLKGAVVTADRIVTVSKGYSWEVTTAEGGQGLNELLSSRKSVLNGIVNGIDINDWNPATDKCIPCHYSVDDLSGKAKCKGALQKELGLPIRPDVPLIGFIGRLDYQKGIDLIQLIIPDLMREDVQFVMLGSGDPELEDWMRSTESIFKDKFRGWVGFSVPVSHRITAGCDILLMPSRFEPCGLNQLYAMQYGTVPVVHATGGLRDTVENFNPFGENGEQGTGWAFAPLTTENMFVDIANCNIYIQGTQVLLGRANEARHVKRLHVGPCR
Description: FIG. 58. SSI-1, SSI-2, and SSI-3 construct design. Three forms of SSI were constructed in the pET expression (see Methods). pExs10a encodes SSI-1, the full length maize SSI (583 amino acids) which has the N-terminal sequence CVAELSREGP (SEQ ID NO:64). pExs8 encodes a truncated SSI, SSI-2, with amino acids # 8-52 deleted from the N-terminus of SSI-1 and which has the N-terminal sequence CVAELSR/DLG (SEQ ID NO:65). pExs1d encodes the most truncated form of SSI, SSI-3, with the first 93 amino acids deleted from SSI-1 and which has the N-terminal sequence SIVFVTGE (SEQ ID NO:66). A depiction of the waxygene, encoding GBSS, which has the N-terminal sequence ASAGMNW (SEQ ID NO:67), is also included for comparison. The amino acid motif KS/TGGL (SEQ ID NO:9), the putative binding site for ADGPGlc, in indicated by the triangles. The KS/TGGL (SEQ ID NO:9) motif is located 18 amino acids from the N-terminus in GBSS, while the motif is 106 amino acids from the N-terminus in maize SSI. Drawing not to scale.
5 mL of supernatant were used to assay STS and SBE activities as previously described (Preiss) with minor modification. […] The unincorporated [^14C]-ADPGlc was separated with Dowex anion exchange column (200-400 mesh, Sigma Chemical Co.). […] SBE activity was determined by phosphorylase stimulation assay. One unit of activity is defined as 1 mmol Glc incorporated into the a-glucan per min at. […]

[2] = biological target: maize starch synthase SSIIa-2, N-terminally truncated SSIIa, first 176 amino acids deleted (493 amino acids), N-terminus GENVMNVI (SEQ ID NO:1) (Zea mays, UniProt A0A804PX87); experiment: ADPGlc kinetics of starch synthase SSIIa-2; type: biochemical; conditions: for Vmax (ADPGlc kinetics): amylopectin as primer
Sequence of maize starch synthase SSIIa-2, N-terminally truncated SSIIa, first 176 amino acids deleted (493 amino acids), N-terminus GENVMNVI (SEQ ID NO:1) (A0A804PX87 entry or part of it, stated change not applied): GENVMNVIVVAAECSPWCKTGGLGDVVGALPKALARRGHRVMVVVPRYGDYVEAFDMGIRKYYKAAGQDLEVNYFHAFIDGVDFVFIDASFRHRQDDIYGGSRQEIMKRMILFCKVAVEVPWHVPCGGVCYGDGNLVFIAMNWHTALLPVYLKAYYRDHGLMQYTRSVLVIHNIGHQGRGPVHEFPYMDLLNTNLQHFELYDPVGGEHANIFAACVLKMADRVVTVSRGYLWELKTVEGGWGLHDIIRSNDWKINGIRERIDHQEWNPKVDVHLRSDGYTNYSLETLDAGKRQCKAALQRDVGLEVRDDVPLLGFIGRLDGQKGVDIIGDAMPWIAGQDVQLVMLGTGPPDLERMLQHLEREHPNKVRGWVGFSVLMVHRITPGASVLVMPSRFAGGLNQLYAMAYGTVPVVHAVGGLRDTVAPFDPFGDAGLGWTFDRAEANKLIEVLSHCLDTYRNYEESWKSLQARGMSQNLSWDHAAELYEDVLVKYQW
Description: FIG. 59. SSIIa-1 and SSIIa-2 construct diagram. Two forms of SSIIa were constructed in the pET expression system. pExs3c encodes SSIIa-1, the putative full length maize SSIIa which has the N-terminal sequence AEAEAGGK (SEQ ID NO:68). […] A depiction of the waxy gene, encoding GBSS which has the N-terminal sequence ASAGMNVV (SEQ ID NO:67), is also included for comparison. The amino acid motif KTGGL (SEQ ID NO:10), the putative binding site for ADPGlc, is indicated by the triangles. The KTGGL (SEQ ID NO:10) motif is located 18 amino acids from the N-terminus in GBSS, while the motif is 194 amino acids from the N-terminus in maize SSIIa.
5 mL of supernatant were used to assay STS and SBE activities as previously described (Preiss) with minor modification. […] […] The unincorporated [^14C]-ADPGlc was separated with Dowex anion exchange column (200-400 mesh, Sigma Chemical Co.). One unit of activity is defined as 1 nmol Glc incorporated into the a-glucan per min at 25° C. SBE activity was determined by phosphorylase stimulation assay. One unit of activity is defined as 1 mmol Glc incorporated into the a-glucan per min at. 30° C.
For the recombinant SS purification, the cell pellet was resuspended in sonication buffer (50 mM Tris-acetate, pH 7.5, 10 mM EDTA, and 5 mMDTT; 7 ml buffer per gram of cell mass), and cells were lysed using a Fisher 550 Sonic Dismembrator with 5×1 min. bursts with 30 sec. intervals. The homogenate was centrifuged at 9600 g for 30 minutes. SSI in the supernatant was then precipitated by slowly adding neutralized saturated ammonium sulfate to 40% saturation. After stirring on ice for an additional 50 minutes, proteins were collected by centrifugation at 12500 g for 45 minutes. The protein pellet was then redissolved in buffer A (50 mM Tris, pH 5.5, 1 mM EDTA, and 5 mM DTT) containing 0.1 M KCl and dialyzed against the same buffer, with one change of buffer. After dialysis, the sample was centrifuged at 13000 g for 20 minutes to remove insoluble materials. The resulting supernatant was loaded onto […] pre-equilibrated with dialysis buffer, and the flow through was collected. The column was washed with 10 column volumes of buffer a containing 0.1 M KCl, and then with buffer A containing 0.5 M KCl and 0.5 M maltose, collecting fractions during both washes. The active fractions were pooled and dialyzed overnight against buffer A, with one change of buffer. The next day, the amylase column sample was filtered and applied to a mono Q 5/5 FPLC column (Pharmacia). After washing with buffer A, a 20 ml 0-0,4 M KCl gradient was employed. The active fractions were electrophoresed on an 8% SDS-PAGE gel (31) to determine the purity of SSI in those fractions; the fractions which were apparently homogeneous were pooled and concentrated using a Centricon-30 spin column (Amicon).

Nc1ncnc2c1ncn2[C@@H]1O[C@H](COP(=O)(O)OP(=O)(O)O[C@H]2O[C@H](CO)[C@@H](O)[C@H](O)[C@H]2O)[C@@H](O)[C@H]1O [ADPGlc, adenosine diphosphate glucose]
Vm (ADPGlc kinetics) ([1]; +citrate): 18.0 ± 0.5 μmol/min/mg protein | Vm (ADPGlc kinetics) ([1]; −citrate): 6.38 ± 0.88 μmol/min/mg protein | Km for ADPGlc compared with SSIIa-1 ([2]; all assay conditions used except glycogen primer at 27° C.): lower Km for ADPGlc | Vmax (ADPGlc kinetics) ([2]; +citrate, 27° C.): 4.83 ± 0.42 μmol/min/mg protein | Vmax (ADPGlc kinetics) ([2]; +citrate, 37° C.): 11.4 ± 0.6 μmol/min/mg protein | Vmax (ADPGlc kinetics) ([2]; −citrate, 27° C.): 4.87 ± 0.25 μmol/min/mg protein | Vmax (ADPGlc kinetics) ([2]; −citrate, 37° C.): 7.86 ± 0.53 μmol/min/mg protein | effect of raising temperature on Km for ADPGlc ([2]; from 27° C. to 37° C.): not affected by raising temperature
